Source: PMC10120551, “Novel Glu-based pyrazolo[3,4-d]pyrimidine analogues: design, synthesis and biological evaluation as DHFR and TS dual inhibitors” (Journal of Enzyme Inhibition and Medicinal Chemistry, 2023)

Assays:
786-0 = test: NCI one-dose screen (SRB); type: cell-based, human; conditions: 786-0, Renal; 10 µM single dose
Experimental: (§1) The growth percentage (G%) and cell viability of the herein target compounds 6a–l, 7a,b, and 9a–c have been screened towards a full panel of 59 cancer cells at NCI’s Developmental Therapeutics Program (NCI-DTP, MD, USA)[21]. The submitted analogues were initially examined for preliminary in vitro anticancer activity using sulforhodamine B (SRB) assay at 10 µM as a single dose to evaluate cell growth and viability according to the procedure of Drug Evaluation Branch[22]^,[23].
(§2) Different types of tumours – colon, NSCLC, leukaemia, CNS, renal, breast, ovarian, melanoma, and prostate cancers – were investigated as a full panel of 59 cell lines, and the attained results are cited in Figures S1–S17 (see Supplementary Material) where the value recorded is the growth relative to that of both the negative control and zero-time number of cells in which both growth inhibition (GI%; 0–100%) and lethality (L%; 0–100%) percentages can be identified. The growth inhibition means percentages (MGI%) for the examined target analogues towards the different treated 59 cancer cells were presented in Figure 2.
(§3) The designed analogues were submitted to NCI-Chemotherapeutic Agents Repository (MD, USA) for screening on a panel of 59 cancer cell lines. All compounds were initially examined at 10 µM concentration (Single-Dose Screen), and then the most efficient analogue 6i was screened further at 0.01–100 µM (Five-Dose Screen). The screening procedures were performed according to NCI-Drug Evaluation Branch protocol using SRB protein assay, as described previously[21]^,[66]. The experimental procedures were detailed in the Supporting Information.

A549/ATCC = test: NCI one-dose screen (SRB); type: cell-based, human; conditions: NSCLC, 10 µM single dose
Experimental: as §1, §2, §3

CCRF-CEM = test: NCI one-dose screen (SRB); type: cell-based, human; conditions: Leukaemia, 10 µM single dose
Experimental: as §1, §2, §3

COLO 205 = test: NCI one-dose screen (SRB); type: cell-based, human; conditions: COLO 205, Colon cancer; 10 µM single dose
Experimental: as §1, §2, §3

DU-145 = test: NCI one-dose screen (SRB); type: cell-based, human; conditions: DU-145, Prostate; 10 µM single dose
Experimental: as §1, §2, §3

EKVX = test: NCI one-dose screen (SRB); type: cell-based, human; conditions: NSCLC, 10 µM single dose
Experimental: as §1, §2, §3

HCT-116 = test: NCI one-dose screen (SRB); type: cell-based, human; conditions: HCT-116, Colon cancer; 10 µM single dose
Experimental: as §1, §2, §3

HOP-62 = test: NCI one-dose screen (SRB); type: cell-based, human; conditions: HOP-62, NSCLC; 10 µM single dose
Experimental: as §1, §2, §3

M14 [1] = test: NCI one-dose screen (SRB); type: cell-based, human; conditions: M14, Melanoma; 10 µM single dose
Experimental: as §1, §2, §3

MCF7 = test: NCI one-dose screen (SRB); type: cell-based, human; conditions: MCF7, Breast; 10 µM single dose
Experimental: as §1, §2, §3

MDA-MB-435 = test: NCI one-dose screen (SRB); type: cell-based, human; conditions: MDA-MB-435, Melanoma; 10 µM single dose
Experimental: as §1, §2, §3

MOLT-4 = test: NCI one-dose screen (SRB); type: cell-based, human; conditions: MOLT-4, Leukaemia; 10 µM single dose
Experimental: as §1, §2, §3

NCI-H226 = test: NCI one-dose screen (SRB); type: cell-based, human; conditions: NCI-H226, NSCLC; 10 µM single dose
Experimental: as §1, §2, §3

NCI-H23 = test: NCI one-dose screen (SRB); type: cell-based, human; conditions: NCI-H23, NSCLC; 10 µM single dose
Experimental: as §1, §2, §3

NCI-H522 = test: NCI one-dose screen (SRB); type: cell-based, human; conditions: NCI-H522, NSCLC; 10 µM single dose
Experimental: as §1, §2, §3

NCI/ADR-RES = test: NCI one-dose screen (SRB); type: cell-based, human; conditions: Ovarian cancer, 10 µM single dose
Experimental: as §1, §2, §3

OVCAR-3 = test: NCI one-dose screen (SRB); type: cell-based, human; conditions: OVCAR-3, Ovarian; 10 µM single dose
Experimental: as §1, §2, §3

OVCAR-4 = test: NCI one-dose screen (SRB); type: cell-based, human; conditions: OVCAR-4, Ovarian cancer; 10 µM single dose
Experimental: as §1, §2, §3

OVCAR-8 = test: NCI one-dose screen (SRB); type: cell-based, human; conditions: OVCAR-8, Ovarian; 10 µM single dose
Experimental: as §1, §2, §3

PC-3 = test: NCI one-dose screen (SRB); type: cell-based, human; conditions: PC-3, Prostate; 10 µM single dose
Experimental: as §1, §2, §3

RPMI-8226 = test: NCI one-dose screen (SRB); type: cell-based, human; conditions: RPMI-8226, Leukaemia; 10 µM single dose
Experimental: as §1, §2, §3

RXF 393 = test: NCI one-dose screen (SRB); type: cell-based, human; conditions: RXF 393, Renal; 10 µM single dose
Experimental: as §1, §2, §3

SF-268 = test: NCI one-dose screen (SRB); type: cell-based, human; conditions: SF-268, CNS; 10 µM single dose
Experimental: as §1, §2, §3

SF-295 = test: NCI one-dose screen (SRB); type: cell-based, human; conditions: SF-295, CNS; 10 µM single dose
Experimental: as §1, §2, §3

SK-MEL-28 = test: NCI one-dose screen (SRB); type: cell-based, human; conditions: SK-MEL-28, Melanoma; 10 µM single dose
Experimental: as §1, §2, §3

SK-MEL-5 = test: NCI one-dose screen (SRB); type: cell-based, human; conditions: SK-MEL-5, Melanoma; 10 µM single dose
Experimental: as §1, §2, §3

SN12C = test: NCI one-dose screen (SRB); type: cell-based, human; conditions: Renal cancer, 10 µM single dose
Experimental: as §1, §2, §3

SNB-19 [2] = test: NCI one-dose screen (SRB); type: cell-based, human; conditions: SNB-19, CNS cancer; 10 µM single dose
Experimental: as §1, §2, §3

SW-620 = test: NCI one-dose screen (SRB); type: cell-based, human; conditions: SW-620, Colon cancer; 10 µM single dose
Experimental: as §1, §2, §3

U251 = test: NCI one-dose screen (SRB); type: cell-based, human; conditions: U251, CNS cancer; 10 µM single dose
Experimental: as §1, §2, §3

UACC-62 = test: NCI one-dose screen (SRB); type: cell-based, human; conditions: UACC-62, Melanoma; 10 µM single dose
Experimental: as §1, §2, §3

SNB-19 [3] = conditions: SNB-19, CNS cancer; five-dose 0.01–100 µM
M14 [4] = test: cells; conditions: Homo sapiens

`CCOC(=O)CC[C@H](NC(=O)c1ccc(NC(=O)Cn2cnc3c(c(C)nn3-c3ccc(Br)cc3)c2=O)cc1)C(=O)OCC` [Compound 6i] was tested, and the GI% (786-0) was 82.93%, the GI% (A549/ATCC) was 71.36% and the GI% (CCRF-CEM) was 70.05%. For the same molecule, the GI% (COLO 205) was 71.69%, the GI% (DU-145) was 85.62% and the GI% (EKVX) was 78.12%. The GI% (HCT-116) was 70.04%, the “L% (lethality)” value (HOP-62) was 8.41% and the GI% (M14 [1]) was 74.15%. It also gave a GI% (MCF7) of 97.72%, a GI% (MDA-MB-435) of 57.10% and a GI% (MOLT-4) of 52.51%. The “L% (lethality)” value (NCI-H226) was 37.32%, the GI% (NCI-H23) was 87.19% and the GI% (NCI-H522) was 52.34%. It also gave a GI% (NCI/ADR-RES) of 51.78%, a GI% (OVCAR-3) of 96.83% and a GI% (OVCAR-4) of 66.09%. It also gave a GI% (OVCAR-8) of 87.86%, a GI% (PC-3) of 91.71% and a GI% (RPMI-8226) of 53.52%. The “L% (lethality)” value (RXF 393) was 22.73%, the GI% (SF-268) was 85.11% and the GI% (SF-295) was 89.78%. For the same molecule, the GI% (SK-MEL-28) was 75.54%, the “L% (lethality)” value (SK-MEL-5) was 1.38% and the GI% (SN12C) was 57.69%. For the same molecule, the GI% (SNB-19 [2]) was 61.23%, the GI% (SW-620) was 62.17% and the GI% (U251) was 53.30%. The GI% (UACC-62) was 63.82%, the TGI (SNB-19 [3]) was 27.3 µM and the GI50 (M14 [4]; M14) was > 100 µM. The CC50 (M14 [4]; M14, read-out: LC50) was > 100 µM.
